Measured values from ChEMBL document CHEMBL1122562, “Synthesis of 3-hydroxy-2- and -4-pyridone nucleosides as potential antitumor agents” (1984).
Active and inactive are the calls of the source. The calls are words filed in the database; no cut-off is given here.

What was measured:
P388 [1] = assay: Compound was tested in vitro for its inhibitory activity against murine P-388 leukemia; type: functional; conditions: Mus musculus, read-out: ID50 (the source's name)
P388 [2] = assay: Compound was tested in vitro for its inhibitory activity against murine P-388 leukemia at doses ranging from 25 to 400 mg/kg qd 1-5; minimally active T/Cvalues of 125 in this tumor system; type: functional, organism-based; conditions: Mus musculus
P388 [3] = assay: Compound was tested in vitro for its inhibitory activity against murine P-388 leukemia at doses ranging from 25 to 400 mg/kg qd 1-5 minimally active T/Cvalues of 125 in this tumor system; type: functional, organism-based; conditions: Mus musculus

| IC50 (P388 [1]) [µM] | SMILES | ID50 (P388 [2]) | also measured |
| --- | --- | --- | --- |
| 60 | Cc1c(O)c(=O)ccn1C1O[C@H](CO)[C@@H](O)[C@H]1O (stereo partly drawn) | – | – |
| 110 | Cc1nccc(O)c1O | – | – |
| – | Cc1c(O)c(O)cc[n+]1C1O[C@H](CO)[C@@H](O)[C@@H]1O (stereo partly drawn) | inactive | – |
| – | O=c1c(O)cccn1[C@@H]1O[C@H](CO)[C@@H](O)[C@@H]1O | – | ID50 (P388 [3]): inactive |
| 450 | O=c1c(O)cccn1[C@@H]1O[C@H](CO)[C@@H](O)[C@H]1O | – | – |
| – | COc1c(C)n(C2O[C@H](CO)[C@@H](O)[C@H]2O)ccc1=O (stereo partly drawn) | inactive | – |
| 300 | Oc1cccnc1O | – | – |
| – | CC(=O)OC[C@H]1O[C@@H](n2cccc(OC(C)=O)c2=O)[C@H](OC(C)=O)[C@@H]1OC(C)=O | inactive | – |
